Key:
[1] = test system: Ramos; conditions: previous studies (Uckun et al. 1992); cited from earlier work
[2] = test system: calf intestinal alkaline phosphatase; conditions: reported by Cortizo et al.; cited from earlier work
[3] = test system: Ramos; assay: Clonogenic assay in methylcellulose; assay type: cell-based, human; conditions: doses of 10 and 25 μM
Procedure: The selective cytotoxicity of BMLOV was examined in clonogenic assays. Cells were grown in methylcellulose media and the number of colonies formed after seven days of treatment with various doses of the drug were determined. The clonogenic assays were performed with six replicates for each treatment as described [F. M. Uckun et al., J. Exp. Med. 163:347-368 (1986); F. M. Uckun & J. A. Ledbetter, Proc. Natl. Acad. Sci. USA 85:8603-8607 (1988)). The data is given plus/minus the standard error of the mean.
For assays of cellular proliferation, cells were grown five days in the presence of the indicated concentrations of BMLOV, pulsed 6 hr with [^3 H]-thymidine (New England Nuclear, Boston, Mass.), and counted in a liquid scintillation counter. Human peripheral blood lymphocytes (PBL) from normal volunteers were isolated from lymphocyte separation medium (Litton Bionetics, Kensington, Md.) by density gradient centrifugation. Monocytes were depleted from PBL by two rounds of plastic absorption for 30 minutes at 37° C. B cells were enriched for by negative selection using complement plus monoclonal antibodies to CD2, CD3, CD4, and CD8 for complement depletion. Clonogenic assays of colony formation in methylcellulose medium were performed as previously described (F. M. Uckun et al. (1992), supra).

[4] = test system: Ramos cells; assay: Anti-phosphotyrosine western blot of cell lysates; assay type: cell-based, human; conditions: FIG. 11; whole cell lysates
[5] = test system: Ramos; assay: Clonogenic assay in methylcellulose; assay type: cell-based, human; conditions: Ramos B cells
[6] = test system: A2780/Tax22; assay: In vitro cytotoxicity, XTT assay
Procedure: (§1) The vanadate compound pV(phen) was tested for in vitro cytotoxicity in a panel of human tumor cell lines. The cell lines used were a human colon carcinoma cell line, HCT116, and two drug-resistant sublines. The HCT116(VM46) subline was selected for resistance to VM-26 and expresses the multidrug resistant (MDR) phenotype including resistance to lipophilic anticancer drugs such as paclitaxel, VP-16, VM-26, doxorubicin, and vinblastine. This cell line overexpresses P-glycoprotein, a cell surface drug efflux pump, which limits accumulation of anticancer drugs such as the ones mentioned above. […] The compound pV(phen) was also evaluated in the ovarian carcinoma cell line A2780 and a paclitaxel resistant subline A2780-Tax22.
(§2) In the cytotoxicity assays, cells were plated and 24 hr later drugs were added and serially diluted. After 72 hr of continuous drug exposure, the tetrazolium dye XTT was added. A dehydrogenase enzyme in live cells reduces the XTT to a form that absorbs light at 450 nm which can be quantitated spectrophotometrically. The greater absorbance, the greater is the number of live cells. The results are expressed as a IC50 which is a drug concentration required to inhibit cell proliferation (i.e., absorbance at 450 nm) to 50% of that of untreated control cells.

[7] = test system: A2780; assay: In vitro cytotoxicity, XTT assay; conditions: Homo sapiens, A2780, 72 h, read-out: IC50 (cytotoxicity)
Procedure: as §1, §2

[8] = test system: HCT116(VM)46; assay: In vitro cytotoxicity, XTT assay
Procedure: as §1, §2

[9] = test system: HCT116(VP)35; assay: In vitro cytotoxicity, XTT assay
Procedure: as §1, §2

[10] = test system: HCT116; assay: In vitro cytotoxicity, XTT assay; conditions: Homo sapiens, HCT-116, 72 h, read-out: IC50 (cytotoxicity)
Procedure: as §1, §2

For `[Na+].[Na+].[Na+].[O]=[V]([O-])([O-])[O-]` [sodium orthovanadate], the “effect on Ramos cells in clonogenic assays” value [1] is listed as “only gave slight effects” and the “concentration strongly inhibiting calf intestinal alkaline phosphatase” value [2] is listed as “less than 20 μM”.

For `CC(=O)C=C(C)[O-].CC(=O)C=C(C)[O-].[Cu+2]` [cupric acetylacetonate], the “sensitivity in clonogenic assay, in words” value [3] was “sensitive to the compound”, the “induction of cellular tyrosine phosphorylation by analogs” value (“induction … by analogs” below) [4] was “induced tyrosine phosphorylation, but in a different pattern than for the vanadyl compounds” and the Colonies ([5]; 1 μM cupric acetylacetonate) was 5749. The Colonies ([5]; 5 μM cupric acetylacetonate) was 226, the Colonies ([5]; 10 μM cupric acetylacetonate) was 127 and the Colonies ([5]; 25 μM cupric acetylacetonate) was 31.

With `CC(=O)O[C@H]1C(=O)[C@@]2(C)[C@H]([C@H](OC(=O)c3ccccc3)[C@]3(O)C[C@H](OC(=O)[C@H](O)[C@@H](NC(=O)c4ccccc4)c4ccccc4)C(C)=C1C3(C)C)[C@]1(OC(C)=O)CO[C@@H]1C[C@@H]2O` [Paclitaxel, reference compound] the IC50 ([6]; Homo sapiens, A2780, 72 h, read-out: IC50 (cytotoxicity)) was 75 nM, the “fold resistance relative to parental cell line” value ([6]; vs A2780, 4320 min) was 18 fold and the IC50 [7] was 4 nM. For the same compound, the IC50 ([8]; Homo sapiens, HCT-116/VM46, 72 h, read-out: IC50 (cytotoxicity)) was 226 nM, the “fold resistance relative to parental cell line” value ([8]; vs HCT116, 4320 min) was 75 fold and the IC50 ([9]; Homo sapiens, HCT-116, 72 h, read-out: IC50 (cytotoxicity)) was 2 nM. The “fold resistance relative to parental cell line” value ([9]; vs HCT116, 4320 min) was 0.7 fold and the IC50 [10] was 3 nM.

In the case of `CC(=O)C=C([O-])c1ccccc1.CC(=O)C=C([O-])c1ccccc1.[O]=[V+2]` [vanadyl 1-benzoyl acetonate], the “induction … by analogs” value [4] is reported as “strongly induced cellular tyrosine phosphorylation”.

In the case of `CC(=O)/C=C(/C)[O-].CC(=O)/C=C(/C)[O-].[O]=[V+2]` [vanadyl acetylacetonate], the “induction … by analogs” value [4] is reported as “strongly induced cellular tyrosine phosphorylation”.
